Measurements reported in ChEMBL document CHEMBL5291721, “A preclinical secondary pharmacology resource illuminates target-adverse drug reaction associations of marketed drugs” (Nat Commun, 2023).

Assays:
Thromboxane A2 receptor = target: T1, Thromboxane A2 receptor (Homo sapiens, UniProt P21731); format: functional, cell-based
T1 sequence (P21731 whole entry): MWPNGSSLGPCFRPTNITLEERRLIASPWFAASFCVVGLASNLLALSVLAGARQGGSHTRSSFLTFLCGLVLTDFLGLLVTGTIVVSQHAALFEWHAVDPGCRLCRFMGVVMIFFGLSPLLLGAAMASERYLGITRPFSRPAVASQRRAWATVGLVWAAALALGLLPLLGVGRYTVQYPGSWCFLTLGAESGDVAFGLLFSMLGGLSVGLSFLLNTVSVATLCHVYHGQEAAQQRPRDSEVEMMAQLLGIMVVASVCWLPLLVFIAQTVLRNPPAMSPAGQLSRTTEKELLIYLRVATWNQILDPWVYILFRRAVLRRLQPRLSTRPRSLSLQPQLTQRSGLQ

[1] = target: T2, Gastrin/cholecystokinin type B receptor (Homo sapiens, UniProt P32239)
T2 sequence (P32239 whole entry): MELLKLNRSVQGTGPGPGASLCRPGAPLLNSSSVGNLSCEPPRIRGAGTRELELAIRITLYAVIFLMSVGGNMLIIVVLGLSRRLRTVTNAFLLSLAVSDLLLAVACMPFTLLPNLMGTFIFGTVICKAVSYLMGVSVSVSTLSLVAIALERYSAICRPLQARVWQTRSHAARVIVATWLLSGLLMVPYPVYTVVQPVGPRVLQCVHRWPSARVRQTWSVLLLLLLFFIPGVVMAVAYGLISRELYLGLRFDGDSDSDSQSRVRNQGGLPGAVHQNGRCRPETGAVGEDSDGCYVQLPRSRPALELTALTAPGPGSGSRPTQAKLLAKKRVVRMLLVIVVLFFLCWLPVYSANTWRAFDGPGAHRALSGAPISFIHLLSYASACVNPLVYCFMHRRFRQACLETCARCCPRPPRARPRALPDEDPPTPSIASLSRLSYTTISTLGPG

[2] = target: T3, Alpha-1A adrenergic receptor (Homo sapiens, UniProt P35348); format: functional, cell-based
T3 sequence (P35348 whole entry): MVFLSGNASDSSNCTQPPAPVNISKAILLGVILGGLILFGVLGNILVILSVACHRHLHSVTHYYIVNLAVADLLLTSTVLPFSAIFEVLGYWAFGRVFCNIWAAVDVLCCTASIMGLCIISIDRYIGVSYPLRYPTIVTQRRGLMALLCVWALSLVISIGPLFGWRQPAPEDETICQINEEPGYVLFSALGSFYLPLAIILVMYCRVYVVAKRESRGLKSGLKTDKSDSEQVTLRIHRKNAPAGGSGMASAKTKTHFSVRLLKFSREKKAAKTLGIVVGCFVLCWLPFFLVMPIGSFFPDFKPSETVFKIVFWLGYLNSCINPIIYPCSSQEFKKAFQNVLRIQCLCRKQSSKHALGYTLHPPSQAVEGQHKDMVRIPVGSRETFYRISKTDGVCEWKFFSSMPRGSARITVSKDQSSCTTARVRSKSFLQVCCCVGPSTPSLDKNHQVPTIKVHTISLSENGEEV

[3] = target: 3',5'-cyclic-AMP phosphodiesterase 4A (Homo sapiens, UniProt P27815); format: functional
Mu-type opioid receptor = Mu-type opioid receptor (Homo sapiens, UniProt P35372)
D(3) dopamine receptor = D(3) dopamine receptor (Homo sapiens, UniProt P35462)
Histamine H3 receptor = Histamine H3 receptor (Homo sapiens, UniProt Q9Y5N1)
[4] = target: Prostaglandin G/H synthase 1 (Homo sapiens, UniProt P23219); format: functional
Progesterone receptor [5] = target: T4, Progesterone receptor (Homo sapiens, UniProt P06401)
T4 sequence (P06401 whole entry): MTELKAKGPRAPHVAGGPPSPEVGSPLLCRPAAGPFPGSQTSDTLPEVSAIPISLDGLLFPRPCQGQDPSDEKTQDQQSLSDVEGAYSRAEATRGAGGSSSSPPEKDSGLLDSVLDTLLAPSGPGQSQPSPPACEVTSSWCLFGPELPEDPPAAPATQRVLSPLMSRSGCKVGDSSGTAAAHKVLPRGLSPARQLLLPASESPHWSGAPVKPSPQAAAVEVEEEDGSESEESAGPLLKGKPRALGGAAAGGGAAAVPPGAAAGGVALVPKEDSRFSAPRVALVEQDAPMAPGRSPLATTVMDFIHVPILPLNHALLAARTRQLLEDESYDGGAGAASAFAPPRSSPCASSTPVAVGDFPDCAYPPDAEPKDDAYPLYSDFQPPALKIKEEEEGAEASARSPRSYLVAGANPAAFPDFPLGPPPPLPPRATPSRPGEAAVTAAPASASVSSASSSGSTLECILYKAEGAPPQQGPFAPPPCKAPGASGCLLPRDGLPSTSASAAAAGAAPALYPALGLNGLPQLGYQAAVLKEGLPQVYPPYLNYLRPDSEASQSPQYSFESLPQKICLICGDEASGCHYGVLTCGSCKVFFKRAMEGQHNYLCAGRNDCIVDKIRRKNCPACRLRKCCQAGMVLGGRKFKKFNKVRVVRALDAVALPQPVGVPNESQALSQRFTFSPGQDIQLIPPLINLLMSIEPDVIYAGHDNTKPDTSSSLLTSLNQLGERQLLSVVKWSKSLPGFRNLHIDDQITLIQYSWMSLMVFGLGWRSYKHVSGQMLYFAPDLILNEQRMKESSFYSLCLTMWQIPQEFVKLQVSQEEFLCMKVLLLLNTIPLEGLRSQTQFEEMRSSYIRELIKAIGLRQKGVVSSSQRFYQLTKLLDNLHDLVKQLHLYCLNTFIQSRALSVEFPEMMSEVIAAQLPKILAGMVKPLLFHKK

Histamine H2 receptor = Histamine H2 receptor (Homo sapiens, UniProt P25021); format: functional, cell-based
Progesterone receptor [6] = target: T4, Progesterone receptor; format: functional
Histamine H1 receptor = Histamine H1 receptor (Homo sapiens, UniProt P35367)
Further: assay procedure not described here.

Sequence of Prostaglandin G/H synthase 1 (P23219 whole entry): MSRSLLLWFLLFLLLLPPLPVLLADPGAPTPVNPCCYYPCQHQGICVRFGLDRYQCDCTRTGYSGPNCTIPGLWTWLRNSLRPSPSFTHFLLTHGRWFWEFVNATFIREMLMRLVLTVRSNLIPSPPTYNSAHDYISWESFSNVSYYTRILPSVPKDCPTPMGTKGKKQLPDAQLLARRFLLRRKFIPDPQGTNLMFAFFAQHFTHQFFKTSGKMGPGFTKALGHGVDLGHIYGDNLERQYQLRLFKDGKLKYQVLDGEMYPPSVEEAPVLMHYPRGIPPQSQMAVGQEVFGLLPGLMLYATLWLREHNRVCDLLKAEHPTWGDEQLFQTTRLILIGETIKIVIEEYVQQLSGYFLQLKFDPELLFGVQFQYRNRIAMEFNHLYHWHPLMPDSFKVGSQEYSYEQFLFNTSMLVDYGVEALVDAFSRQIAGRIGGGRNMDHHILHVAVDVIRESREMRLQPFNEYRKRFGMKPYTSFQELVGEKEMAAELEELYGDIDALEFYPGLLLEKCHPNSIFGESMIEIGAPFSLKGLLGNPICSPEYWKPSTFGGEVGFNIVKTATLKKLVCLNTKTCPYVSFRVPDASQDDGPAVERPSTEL
Sequence of Histamine H3 receptor (Q9Y5N1 whole entry): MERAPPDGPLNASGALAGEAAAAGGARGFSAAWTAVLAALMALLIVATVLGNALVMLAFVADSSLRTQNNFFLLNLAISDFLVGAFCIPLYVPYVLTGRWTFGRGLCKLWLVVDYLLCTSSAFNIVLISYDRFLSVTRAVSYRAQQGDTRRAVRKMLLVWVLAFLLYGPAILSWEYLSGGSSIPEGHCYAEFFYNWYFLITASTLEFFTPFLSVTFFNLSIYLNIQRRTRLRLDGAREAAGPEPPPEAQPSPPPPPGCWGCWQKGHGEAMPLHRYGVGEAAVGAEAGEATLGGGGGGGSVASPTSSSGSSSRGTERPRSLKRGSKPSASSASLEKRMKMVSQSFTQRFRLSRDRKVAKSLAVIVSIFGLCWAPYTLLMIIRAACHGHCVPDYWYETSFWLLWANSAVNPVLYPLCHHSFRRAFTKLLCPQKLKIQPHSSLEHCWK
Sequence of Mu-type opioid receptor (P35372 whole entry): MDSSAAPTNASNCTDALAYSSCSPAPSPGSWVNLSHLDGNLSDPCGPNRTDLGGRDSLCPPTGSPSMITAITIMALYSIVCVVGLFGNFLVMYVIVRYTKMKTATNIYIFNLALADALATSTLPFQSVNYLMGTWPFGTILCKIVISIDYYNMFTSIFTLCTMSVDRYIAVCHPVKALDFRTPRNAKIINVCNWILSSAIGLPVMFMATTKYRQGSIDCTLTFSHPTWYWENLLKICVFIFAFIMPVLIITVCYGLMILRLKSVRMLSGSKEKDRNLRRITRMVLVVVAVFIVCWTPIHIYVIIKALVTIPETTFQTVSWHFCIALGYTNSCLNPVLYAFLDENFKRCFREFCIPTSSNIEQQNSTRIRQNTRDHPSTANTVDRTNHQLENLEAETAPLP
Sequence of D(3) dopamine receptor (P35462 whole entry): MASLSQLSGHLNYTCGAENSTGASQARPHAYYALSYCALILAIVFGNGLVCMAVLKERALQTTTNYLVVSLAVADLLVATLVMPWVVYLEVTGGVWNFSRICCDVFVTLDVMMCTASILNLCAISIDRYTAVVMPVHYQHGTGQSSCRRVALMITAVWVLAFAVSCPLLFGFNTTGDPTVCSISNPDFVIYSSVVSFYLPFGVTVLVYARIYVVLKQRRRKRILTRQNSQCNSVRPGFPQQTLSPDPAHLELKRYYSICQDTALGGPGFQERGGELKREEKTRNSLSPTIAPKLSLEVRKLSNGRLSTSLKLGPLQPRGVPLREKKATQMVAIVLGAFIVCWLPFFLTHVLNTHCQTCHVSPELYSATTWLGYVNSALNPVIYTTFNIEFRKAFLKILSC
Sequence of Histamine H2 receptor (P25021 whole entry): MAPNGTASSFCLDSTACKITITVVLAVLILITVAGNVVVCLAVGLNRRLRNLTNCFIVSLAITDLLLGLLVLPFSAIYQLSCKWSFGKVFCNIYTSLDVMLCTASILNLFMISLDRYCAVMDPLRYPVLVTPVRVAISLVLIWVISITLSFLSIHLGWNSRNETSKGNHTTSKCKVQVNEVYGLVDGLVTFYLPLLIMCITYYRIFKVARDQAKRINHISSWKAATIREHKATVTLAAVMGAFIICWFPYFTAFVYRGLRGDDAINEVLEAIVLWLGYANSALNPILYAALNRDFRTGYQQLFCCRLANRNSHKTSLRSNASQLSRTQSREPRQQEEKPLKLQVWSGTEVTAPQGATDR
Sequence of Histamine H1 receptor (P35367 whole entry): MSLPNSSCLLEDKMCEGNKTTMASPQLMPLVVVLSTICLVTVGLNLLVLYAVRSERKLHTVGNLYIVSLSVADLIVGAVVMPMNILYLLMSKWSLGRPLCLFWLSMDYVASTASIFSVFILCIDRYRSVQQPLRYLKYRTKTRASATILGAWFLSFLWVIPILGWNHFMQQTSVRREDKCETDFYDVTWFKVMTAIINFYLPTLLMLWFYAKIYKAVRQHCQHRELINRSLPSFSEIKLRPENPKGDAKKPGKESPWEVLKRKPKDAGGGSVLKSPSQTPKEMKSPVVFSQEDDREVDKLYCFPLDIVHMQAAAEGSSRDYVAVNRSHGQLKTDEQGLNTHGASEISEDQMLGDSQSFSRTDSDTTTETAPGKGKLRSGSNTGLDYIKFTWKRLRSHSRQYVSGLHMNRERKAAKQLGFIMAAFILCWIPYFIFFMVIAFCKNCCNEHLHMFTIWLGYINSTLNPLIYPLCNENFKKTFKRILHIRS
Sequence of 3',5'-cyclic-AMP phosphodiesterase 4A (P27815 whole entry): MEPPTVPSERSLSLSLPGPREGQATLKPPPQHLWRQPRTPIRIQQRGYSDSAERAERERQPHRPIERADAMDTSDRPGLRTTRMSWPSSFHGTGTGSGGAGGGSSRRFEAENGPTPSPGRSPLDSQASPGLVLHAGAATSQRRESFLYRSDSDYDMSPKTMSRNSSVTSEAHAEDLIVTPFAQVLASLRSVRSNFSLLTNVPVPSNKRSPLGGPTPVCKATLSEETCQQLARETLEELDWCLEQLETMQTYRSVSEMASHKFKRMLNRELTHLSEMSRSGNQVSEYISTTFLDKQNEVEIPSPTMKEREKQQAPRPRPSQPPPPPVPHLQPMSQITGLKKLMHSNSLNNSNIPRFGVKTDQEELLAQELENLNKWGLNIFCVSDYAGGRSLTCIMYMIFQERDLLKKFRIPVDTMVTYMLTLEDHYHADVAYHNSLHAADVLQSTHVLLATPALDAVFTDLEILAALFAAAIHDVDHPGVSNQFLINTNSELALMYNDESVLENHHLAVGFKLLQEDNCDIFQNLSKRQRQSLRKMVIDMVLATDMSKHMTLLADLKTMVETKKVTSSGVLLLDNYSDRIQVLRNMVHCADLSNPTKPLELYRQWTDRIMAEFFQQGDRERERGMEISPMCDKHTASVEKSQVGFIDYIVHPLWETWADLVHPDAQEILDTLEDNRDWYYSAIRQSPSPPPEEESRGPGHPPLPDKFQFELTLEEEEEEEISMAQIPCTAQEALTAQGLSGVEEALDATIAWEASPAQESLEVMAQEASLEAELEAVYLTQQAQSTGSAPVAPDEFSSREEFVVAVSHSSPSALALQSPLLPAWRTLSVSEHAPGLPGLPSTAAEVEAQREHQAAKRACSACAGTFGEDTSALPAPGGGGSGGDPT

Compound	AC50 (Thromboxane A2 receptor)	AC50 [1]	AC50 [2]	AC50 [3]	AC50 (Mu-type opioid receptor)	AC50 (D(3) dopamine receptor)	AC50 (Histamine H3 receptor)	AC50 [4]	AC50 (Progesterone receptor [5])	AC50 (Histamine H2 receptor)	AC50 (Progesterone receptor [6])	AC50 (Histamine H1 receptor)
Cc1cn([C@H]2C[C@H](N=[N+]=[N-])[C@@H](CO)O2)c(=O)[nH]c1=O [ZIDOVUDINE]	> 30 µM	> 30 µM	> 30 µM	> 30 µM	> 30 µM	> 30 µM	> 30 µM	> 30 µM	> 30 µM	> 10 µM		
CC[C@H]1[C@@H](O)[C@@H]2[C@H](CC[C@]3(C)[C@@H]([C@H](C)CCC(=O)O)CC[C@@H]23)[C@@]2(C)CC[C@@H](O)C[C@@H]12 [OBETICHOLIC ACID]	> 30 µM	> 30 µM	> 30 µM	> 30 µM	> 30 µM	> 30 µM	> 30 µM	> 30 µM	> 30 µM	> 30 µM	> 30 µM	> 30 µM
COCCCN1CCC(NC(=O)c2cc(Cl)c(N)c3c2OCC3)CC1 [PRUCALOPRIDE]	> 30 µM		> 30 µM	> 30 µM	> 30 µM	> 30 µM	> 30 µM	23.6 µM	> 30 µM		> 30 µM	> 30 µM
O=C(OCC(O)CO)c1ccccc1Nc1ccnc2cc(Cl)ccc12 (stereo not given) [GLAFENINE]	> 30 µM		13.5 µM	8.3 µM	28.7 µM	> 30 µM	> 30 µM	> 30 µM	> 30 µM		> 30 µM	> 30 µM
CC(=O)N[C@@H]1[C@@H](O)[C@H](O)[C@@H](CO)O[C@H]1O [N-ACETYLGLUCOSAMINE]	> 30 µM		> 30 µM	> 30 µM	> 30 µM	> 30 µM	> 30 µM	> 30 µM	> 30 µM			
O=C(Cc1ccc(-c2ccccc2)cc1)Nc1ccccn1 [DIFENPIRAMIDE]	> 30 µM		> 10 µM	> 30 µM	> 30 µM	> 30 µM	> 30 µM	> 30 µM	> 30 µM	> 30 µM		> 30 µM
CCOC(=O)[C@H](CCc1ccccc1)N[C@@H](C)C(=O)N1[C@H](C(=O)O)C[C@H]2CCCC[C@@H]21 [TRANDOLAPRIL]	> 30 µM		> 30 µM	> 30 µM	> 30 µM	> 30 µM	> 30 µM	> 30 µM	> 30 µM			
CC(=O)Nc1ccc(O)cc1 [ACETAMINOPHEN]	> 30 µM		> 30 µM	> 30 µM	> 30 µM	> 30 µM	> 30 µM	> 30 µM	> 30 µM		> 30 µM	
CCC1=C(C)CN(C(=O)NCCc2ccc(S(=O)(=O)NC(=O)N[C@H]3CC[C@H](C)CC3)cc2)C1=O [GLIMEPIRIDE]	18.5 µM		> 30 µM	> 30 µM	> 30 µM	> 30 µM	> 30 µM	> 30 µM	> 30 µM			
CC(C)(C)NC[C@H](O)COc1ccccc1C1CCCC1 [PENBUTOLOL]	16.1 µM		2.54 µM	> 10 µM	11.9 µM	7.74 µM	> 30 µM	21.1 µM	> 30 µM			
CCC(=O)NCC[C@@H]1CCc2ccc3c(c21)CCO3 [RAMELTEON]	> 30 µM		> 30 µM	> 30 µM	> 30 µM	> 30 µM	> 30 µM	> 30 µM	> 30 µM			
CN(C)[C@@H](c1cccc(O)c1)[C@H]1CCCC[C@H]1O [CIRAMADOL]	> 30 µM		> 30 µM	> 30 µM	0.0059 µM	> 30 µM	> 30 µM	> 30 µM	> 30 µM			
O=C(CCNNC(=O)c1ccncc1)NCc1ccccc1 [NIALAMIDE]	> 30 µM		> 30 µM	> 30 µM	> 30 µM	> 30 µM	> 30 µM	8.28 µM	> 30 µM			
O=C(O)c1cc(O)ccc1O [GENTISIC ACID]	> 30 µM		> 30 µM	> 30 µM	> 30 µM	> 30 µM	> 30 µM	> 30 µM	> 30 µM			
Cc1cc(C#N)cc(C)c1Oc1nc(Nc2ccc(C#N)cc2)nc(N)c1Br [ETRAVIRINE]	> 3 µM		> 3 µM	> 30 µM	19.1 µM	> 30 µM	> 30 µM	20.4 µM	0.08 µM			
C[C@]12CC[C@@H]3c4ccc(O)cc4CC[C@H]3[C@@H]1C[C@@H](O)[C@@H]2O [ESTRIOL]	> 30 µM		> 30 µM	> 30 µM	> 30 µM	> 30 µM	> 30 µM	12 µM	3.3 µM			
Oc1c(Cl)cc(Cl)c2cccnc12 [CHLOROXINE]	> 30 µM		> 30 µM	> 30 µM	> 30 µM	> 30 µM	> 30 µM	> 0.3 µM	> 30 µM			
CC[N+]1(C)[C@@H]2CC(OC(=O)[C@H](CO)c3ccccc3)C[C@H]1[C@@H]1O[C@@H]12 (stereo not given in full) [OXITROPIUM]	> 30 µM		> 30 µM	> 30 µM	> 30 µM	> 30 µM	> 30 µM	> 30 µM	> 30 µM			
N[C@@H](C(=O)N[C@@H]1C(=O)N2C(C(=O)O)=C(Cl)CC[C@H]12)c1ccccc1 [LORACARBEF ANHYDROUS]	> 30 µM		> 30 µM	> 30 µM	> 30 µM	> 30 µM	> 30 µM	> 30 µM	> 30 µM			
